# According to patent publication US20260217698A1 (BEYANG THERAPEUTICS CO., LTD., priority 2022, published 2026):
# How the values were obtained:
# VEGFR2 = VEGFR2 (Homo sapiens, UniProt P35968); assay: Kinase inhibition, Mobility Shift Assay/IMAP, VEGFR2; format: biochemical; design: purchased Carna 08-191
# Description: (§1) This assay directly monitored the ability of compounds to inhibit kinase phosphorylation by measuring non-phosphorylated and phosphorylated substrates in kinase reactions by using Mobility Shift Assays/IMAP™ analysis.
# (§2) Read the conversion ratio data on CaliperEZ Reader II. Convert conversion rates into inhibition ratio data.
# (§3) “Min” indicates the readout of the control well without the addition of enzymes; and “Max” indicates the readout of the control well with the addition of DMSO Fit IC50 values with XL Fit excel add-in version […].
# (§4) X indicates the log value of compound concentration, and Y indicates the inhibition ratio (% inhibition).
# EGFR = target: T1, EGFR (Homo sapiens, UniProt P00533); assay: Kinase inhibition, Mobility Shift Assay/IMAP, EGFR; format: biochemical
# T1 construct: purchased Carna 08-115
# T1 sequence (P00533 669-1210 limits assumed): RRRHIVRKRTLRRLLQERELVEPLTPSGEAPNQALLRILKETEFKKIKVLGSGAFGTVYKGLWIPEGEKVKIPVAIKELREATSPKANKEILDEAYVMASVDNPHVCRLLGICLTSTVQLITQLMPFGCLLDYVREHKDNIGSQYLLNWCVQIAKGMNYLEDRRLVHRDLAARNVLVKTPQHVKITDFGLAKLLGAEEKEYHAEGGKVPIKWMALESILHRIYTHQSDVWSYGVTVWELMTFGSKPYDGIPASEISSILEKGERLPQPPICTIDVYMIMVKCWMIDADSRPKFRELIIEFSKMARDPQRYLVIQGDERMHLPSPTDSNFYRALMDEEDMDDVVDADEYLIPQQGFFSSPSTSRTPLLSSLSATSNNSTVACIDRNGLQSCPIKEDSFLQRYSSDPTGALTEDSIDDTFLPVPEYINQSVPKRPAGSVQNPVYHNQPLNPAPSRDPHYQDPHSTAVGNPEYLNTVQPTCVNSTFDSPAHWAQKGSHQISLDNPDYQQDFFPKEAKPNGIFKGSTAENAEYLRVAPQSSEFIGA
# Description: as §1, §2, §3, §4
# melanin = assay: Binding capacity of compounds to melanin; format: in vitro ADME, cuttlefish (Sepia officinalis); conditions: cuttlefish (Sepia officinalis), melanin suspension (1 mg/mL); 1 mg/mL melanin in PBS pH 7.4, 2 μM compound, 2 h at 37° C.; read-out: Fu % (percentage of free drug)
# Description: Pigmented eye tissues contain melanin in intracellular melanosomes. Drugs bind to melanin to varying degrees, ranging from non-binding to extensive binding. Therefore, melanin binding is an important feature that affects drug delivery and biodistribution in the eye. The binding capacity of the compound to the melanin must be considered in the development of ophthalmic drugs.
# Melanin was derived from the melanin of cuttlefish (Sepia officinalis) and was commercially available from Sigma Aldrich (St Louis, MO).
# First, prepare 1 mg/mL melanin suspension with PBS (pH 7.4). As a washing step for the matrix, centrifuge the suspended particles for 5 min at 3000 rpm. Resuspend the resulting particles in a fresh PBS buffer, heat to 37° C. over continuous shaking and incubate it for 1 h. Accurately pipette 2 μL of the test stock solution (0.1 mM) into 98 μL of melanin suspension (1 mg/mL) to achieve a final incubation concentration of 2 μM. Similarly, accurately pipette 2 μL of the stock solution (0.1 mM) to 98 μL of PBS buffer (containing 0.1% BSA) as a blank control sample. Incubate the samples in a shaker (80-90 rpm) for 2 h at 37° C. Then, centrifuge the samples at room temperature. Pipette 50 μL of the supernatant and add 50 μL of precipitant (containing an internal standard). After protein precipitation of all the above samples, centrifuge the samples to collect the supernatants, dilute the supernatants with water (if necessary) and inject them for analysis. At the same time, measure the positive controls, including the high-binding compounds Sunitinib and chloroquine and the low-binding compound celecoxib. Establish an LC-MS/MS method for determining compound concentrations, and calibrate the peak area ratio of analyte/internal standard (Analyte/AIS) in the measured sample by the dilution factor to take it as an alternative concentration for the sample for data processing. The binding rate (Fb) of a compound in melanin was calculated as: […]
# Ctest was the concentration of the compound in the melanin-incubated sample or the peak area ratio of the test compound to the internal standard. Ccontrol was the concentration of the compound in the blank control sample or the peak area ratio of the test compound to the internal standard. […]
# VEGFR2, sequence (P35968 790-1356 limits assumed): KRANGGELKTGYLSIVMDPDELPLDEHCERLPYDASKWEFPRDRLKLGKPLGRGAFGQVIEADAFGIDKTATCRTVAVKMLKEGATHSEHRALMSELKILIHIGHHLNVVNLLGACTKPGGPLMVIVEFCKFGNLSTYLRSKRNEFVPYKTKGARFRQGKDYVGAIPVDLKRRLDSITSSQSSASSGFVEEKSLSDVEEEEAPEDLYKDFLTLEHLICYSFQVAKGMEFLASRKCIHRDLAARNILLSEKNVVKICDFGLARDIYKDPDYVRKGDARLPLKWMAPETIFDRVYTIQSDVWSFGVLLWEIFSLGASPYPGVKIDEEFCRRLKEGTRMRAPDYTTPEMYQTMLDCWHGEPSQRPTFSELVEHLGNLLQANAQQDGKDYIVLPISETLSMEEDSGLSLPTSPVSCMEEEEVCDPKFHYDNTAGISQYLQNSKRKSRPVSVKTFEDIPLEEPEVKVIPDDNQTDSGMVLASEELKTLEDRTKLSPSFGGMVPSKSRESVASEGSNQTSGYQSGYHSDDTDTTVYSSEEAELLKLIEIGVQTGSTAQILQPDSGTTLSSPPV
Structure (SMILES),IC50 (VEGFR2),IC50 (EGFR),"fraction unbound at 2 h, 2 μM (melanin)"
"Cn1ncc2c(COc3nsc(NC(=O)NCCCCN4CCCC4)c3C(N)=O)cccc21 [Compound T004, 3-((1-methyl-1H-indazol-4-yl)methoxy)-5-(3-(4-(pyrrolidin-1-yl)butyl)ureido)isothiazole-4-carboxamide]",163 nM,,
"Cc1cc(COc2nsc(NC(=O)NCCCCN3CCCC3)c2C(N)=O)nn1C [Compound T009, 3-((1,5-dimethyl-1H-pyrazol-3-yl)methoxy)-5-(3-(4-(pyrrolidin-1-yl)butyl)ureido)isothiazole-4-carboxamide]",217 nM,,
"COc1cccc(COc2nsc(NC(=O)NCCCCN3CCCC3)c2C(N)=O)c1OC [Compound T032, 3-((2,3-dimethoxybenzyl)oxy)-5-(3-(4-(pyrrolidin-1-yl)butyl)ureido)isothiazole-4-carboxamide]",56.8 nM,39600 nM,
CC(C)(C)OC(=O)N1CCN(CCn2cc(Nc3snc(OCc4c(F)cc(Br)cc4F)c3C(N)=O)cn2)CC1 [Compound T046],62 nM,,
"CC(C)NC(=O)c1cccc(COc2nsc(NC(=O)NCCCCN3CCCC3)c2C(N)=O)c1 [Compound T057, 3-((3-(isopropylcarbamoyl)benzyl)oxy)-5-(3-(4-(pyrrolidin-1-yl)butyl)ureido)isothiazole-4-carboxamide]",152 nM,> 60000 nM,
"COc1cc(COc2nsc(NC(=O)NCCCCN3CC[C@H](F)C3)c2C(N)=O)cc(OC)c1 [Compound T062, (S)-3-((3,5-dimethoxybenzyl)oxy)-5-(3-(4-(3-fluoropyrrolidin-1-yl)butyl)ureido)isothiazole-4-carboxamide]",58.8 nM,> 60000 nM,0.0195
"CCOc1ccc(F)c(COc2nsc(NC(=O)NCCCCN3CCCC3)c2C(N)=O)c1 [Compound T096, 3-((5-ethoxy-2-fluorobenzyl)oxy)-5-(3-(4-(pyrrolidin-1-yl)butyl)ureido)isothiazole-4-carboxamide]",,,0.0792
NC(=O)c1c(OCc2cc(C(=O)NC3CC3)ccc2F)nsc1NC(=O)NCCCCN1CC[C@H](O)C1 [Compound T099],,,0.0884
"CN1CCN(CCCNC(=O)Nc2snc(OCc3cccc(C(=O)CC4CC4)c3)c2C(N)=O)CC1 [Compound T110, 3-[[3-(2-cyclopropylacetyl)phenyl]methoxy]-5-[3-(4-methylpiperazin-1-yl)propylcarbamoylamino]isothiazole-4-carboxamide]",,,0.0485
"NC(=O)c1c(OCc2cc(C(=O)NC3CC3)ccc2F)nsc1NC(=O)NCCCN1CCNCC1 [Compound T153, 3-[[5-(cyclopropylcarbamyl)-2-fluoro-phenyl]methoxy]-5-(3-piperazin-1-ylpropylcarbamylamino)isothiazol-4-formamide]",0.66 nM,,
"CC(=O)N1CCN(CCCNC(=O)Nc2snc(OCc3cc(C(=O)NC4CC4)ccc3F)c2C(N)=O)CC1 [Compound T156, 5-[3-(4-acetylpiperazin-1-yl)propylcarbamoylamino]-3-[[5-(cyclopropylcarbamoyl)-2-fluoro-phenyl]methoxy]isothiazole-4-carboxamide]",1.44 nM,,
"NC(=O)c1c(OCc2cc(C(=O)NC3CC3)ccc2F)nsc1N [Compound T159, 5-amino-3-[[5-(cyclopropylcarbamoyl)-2-fluoro-phenyl]methoxy]isothiazole-4-carboxamide]",41.7 nM,8770 nM,
"CCN1CCN(CCCNC(=O)Nc2snc(OCc3cc(C(=O)NC4CC4)ccc3F)c2C(N)=O)CC1 [Compound T163, 3-[[5-(cyclopropylcarbamoyl)-2-fluoro-phenyl]methoxy]-5-[3-(4-ethylpiperazin-1-yl)propylcarbamoylamino]isothiazole-4-carboxamide]",0.32 nM,11200 nM,
"CCN1CCN(CCCNC(=O)Nc2snc(OCc3ccc(F)c(C(=O)NC4CC4)c3)c2C(N)=O)CC1 [Compound T164, 3-[[3-(cyclopropylcarbamoyl)-4-fluoro-phenyl]methoxy]-5-[3-(4-ethylpiperazin-1-yl)propylcarbamoylamino]isothiazole-4-carboxamide]",1.25 nM,12200 nM,
"NC(=O)c1c(OCc2ccc(F)c(C(=O)NC3CC3)c2)nsc1NC(=O)NCCCN1CCN(C2CC2)CC1 [Compound T165, 3-[[3-(cyclopropylcarbamoyl)-4-fluoro-phenyl]methoxy]-5-[3-(4-cyclopropylpiperazin-1-yl)propylcarbamoylamino]isothiazole-4-carboxamide]",1.46 nM,31600 nM,
"NCCCNC(=O)Nc1snc(OCc2cc(C(=O)NC3CC3)ccc2F)c1C(N)=O [Compound T167, 5-(3-aminopropylcarbamoylamino)-3-[[5-(cyclopropylcarbamoyl)-2-fluoro-phenyl]methoxy]isothiazole-4-carboxamide]",0.95 nM,,
"NC(=O)c1ccc(F)c(COc2nsc(NC(=O)NCCCN3CC[C@H](F)C3)c2C(N)=O)c1 [Compound T168, 3-[(5-carbamoyl-2-fluoro-phenyl)methoxy]-5-[3-[(3S)-3-fluoropyrrolidin-1-yl]propylcarbamoylamino]isothiazole-4-carboxamide]",8.45 nM,,
"NC(=O)c1c(OCc2cc(C(=O)NC3CC3)ccc2F)nsc1NC(=O)NCCCO [Compound T170, 3-[[5-(cyclopropylcarbamoyl)-2-fluoro-phenyl]methoxy]-5-(3-hydroxypropylcarbamoylamino)isothiazole-4-carboxamide]",1.12 nM,,

# Next, values leading:
IC50 (VEGFR2),IC50 (EGFR),"fraction unbound at 2 h, 2 μM (melanin)",Structure (SMILES)
130 nM,,,"Cn1nc(COc2nsc(NC(=O)NCCCCN3CCCC3)c2C(N)=O)c2ccccc21 [Compound T002, 3-((1-methyl-1H-indazol-3-yl)methoxy)-5-(3-(4-(pyrrolidin-1-yl)butyl)ureido)isothiazole-4-carboxamide]"
112 nM,,,"NC(=O)c1c(OCc2cccc(OC3CC3)c2)nsc1NC(=O)NCCCCN1CCCC1 [Compound T003, 3-((3-cyclopropoxybenzyl)oxy)-5-(3-(4-(pyrrolidin-1-yl)butyl)ureido)isothiazole-4-carboxamide]"
,,0.0817,"NC(=O)c1c(OCc2ccc3c(c2)OCCC3)nsc1NC(=O)NCCCCN1CCCC1 [Compound T097, 3-(chroman-7-ylmethoxy)-5-(4-pyrrolidin-1-ylbutylcarbamoylamino)isothiazole-4-carboxamide]"
6.6 nM,31000 nM,,"COc1cc(F)c(F)c(COc2nsc(NC(=O)NCCCCN3CCCC3)c2C(N)=O)c1F [Compound T142, 5-(4-pyrrolidin-1-ylbutylcarbamoylamino)-3-[(2,3,6-trifluoro-5-methoxy-phenyl)methoxy]isothiazole-4-carboxamide]"
16 nM,4010 nM,,"NC(=O)c1c(OCc2c(F)ccc(OC(F)F)c2F)nsc1NC(=O)NCCCCN1CCCC1 [Compound T148, 3-[[3-(difluoromethoxy)-2,6-difluoro-phenyl]methoxy]-5-(4-pyrrolidin-1-ylbutylcarbamoylamino)isothiazole-4-carboxamide]"
1.2 nM,7420 nM,,"NC(=O)c1c(OCc2ccc(F)c(C(=O)NC3CC3)c2)nsc1NC(=O)NCCCCN1CC[C@@H](O)C1 [Compound T150, 3-[[3-(cyclopropylcarbamoyl)-4-fluoro-phenyl]methoxy]-5-[4-[(3R)-3-hydroxypyrrolidin-1-yl]butylcarbamoylamino]isothiazole-4-carboxamide]"
2.5 nM,15200 nM,,"CC(=O)N1CCN(CCCNC(=O)Nc2snc(OCc3ccc(F)c(C(=O)NC4CC4)c3)c2C(N)=O)CC1 [Compound T157, 5-[3-(4-acetylpiperazin-1-yl)propylcarbamoylamino]-3-[[3-(cyclopropylcarbamoyl)-4-fluoro-phenyl]methoxy]isothiazole-4-carboxamide]"
1.97 nM,5910 nM,,"CC(C)(C)OC(=O)CCNC(=O)Nc1snc(OCc2cc(C(=O)NC3CC3)ccc2F)c1C(N)=O [Compound T173, Tert-butyl 3-[[4-carbamoyl-3-[[5-(cyclopropylcarbamoyl)-2-fluoro-phenyl]methoxy]isothiazol-5-yl]carbamoylamino]propanoate]"
